Laboratory results taken from ChEMBL document CHEMBL1201862, “PubChem BioAssay data set” (2004).
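The compound was tested at five concentrations on cells cultured in 96-well plates, with a 48-hour exposure period. GI50 is the concentration that inhibits growth by half.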 Activity calls are given as the source filed them. Rule as the data show it: active = GI50 up to about 1.1 µM and inactive = higher.

Legend:
Assay in all cases: NCI tumour cell line growth inhibition, 48 h
SF-295 = tested on: SF-295
SK-MEL-5 = tested on: SK-MEL-5
HCT-116 = tested on: HCT-116
RXF 393 = tested on: RXF 393
MDA-MB-435 = tested on: MDA-MB-435
HOP-62 = tested on: HOP-62
SN12C = tested on: SN12C
CCRF-CEM = tested on: CCRF-CEM
COLO 205 = tested on: COLO 205
Hs-578T = tested on: Hs-578T
NCI-H522 = tested on: NCI-H522
SNB-19 = tested on: SNB-19
LOX IMVI = tested on: LOX IMVI
OVCAR-3 = tested on: OVCAR-3
UACC-257 = tested on: UACC-257
NCI-H23 = tested on: NCI-H23
NCI/ADR-RES = tested on: NCI/ADR-RES
CAKI-1 = tested on: CAKI-1
HOP-92 = tested on: HOP-92
KM12 = tested on: KM12

SMILES	GI50 (SF-295)	GI50 (SK-MEL-5)	GI50 (HCT-116)	GI50 (RXF 393)	GI50 (MDA-MB-435)	GI50 (HOP-62)	GI50 (SN12C)	GI50 (CCRF-CEM)	GI50 (COLO 205)	GI50 (Hs-578T)	GI50 (NCI-H522)	GI50 (SNB-19)	GI50 (LOX IMVI)	GI50 (OVCAR-3)	GI50 (UACC-257)	GI50 (NCI-H23)	GI50 (NCI/ADR-RES)	GI50 (CAKI-1)	GI50 (HOP-92)	GI50 (KM12)
C=C(Br)C/N=C/N(C)C	> 100 µM (inactive)	> 100 µM (inactive)	> 100 µM (inactive)	> 100 µM (inactive)	> 100 µM (inactive)	> 100 µM (inactive)	> 100 µM (inactive)	> 100 µM (inactive)	> 100 µM (inactive)	> 100 µM (inactive)	> 100 µM (inactive)	> 100 µM (inactive)	> 100 µM (inactive)	> 100 µM (inactive)	> 100 µM (inactive)	> 100 µM (inactive)	> 100 µM (inactive)	> 100 µM (inactive)	> 100 µM (inactive)	–
C=CC(C)(C)N[C@@H](C(=O)N1CCC[C@H]1c1nc(-c2nc(C(=O)OCC=C(C)C)c(C)o2)c(C)o1)C(C)C	20.1 µM (inactive)	22.3 µM (inactive)	17.8 µM (inactive)	30.7 µM (inactive)	18.5 µM (inactive)	21.6 µM (inactive)	18.5 µM (inactive)	11.7 µM (inactive)	22.4 µM (inactive)	18 µM (inactive)	16.9 µM (inactive)	19.7 µM (inactive)	30.6 µM (inactive)	23.1 µM (inactive)	20.5 µM (inactive)	21.8 µM (inactive)	22.6 µM (inactive)	35.5 µM (inactive)	17.5 µM (inactive)	23 µM (inactive)
CN(C)CCNc1ccc(CO)c2oc3ccc(O)cc3c(=O)c12	14.2 µM (inactive)	14.2 µM (inactive)	6.4 µM (inactive)	12.6 µM (inactive)	13.8 µM (inactive)	10.3 µM (inactive)	12.9 µM (inactive)	4.56 µM (inactive)	8.97 µM (inactive)	14 µM (inactive)	4.32 µM (inactive)	17.1 µM (inactive)	11.5 µM (inactive)	16.5 µM (inactive)	12.8 µM (inactive)	11.5 µM (inactive)	21.3 µM (inactive)	21.6 µM (inactive)	15.7 µM (inactive)	14.4 µM (inactive)
c1ccc2c(-c3cnc(-c4c[nH]c5ccccc45)cn3)c[nH]c2c1	20.2 µM (inactive)	50.1 µM (inactive)	5.2 µM (inactive)	26.7 µM (inactive)	24.9 µM (inactive)	37.8 µM (inactive)	31.4 µM (inactive)	–	34.4 µM (inactive)	57.8 µM (inactive)	28.6 µM (inactive)	58.7 µM (inactive)	29.3 µM (inactive)	27.2 µM (inactive)	43.4 µM (inactive)	61.8 µM (inactive)	74.5 µM (inactive)	74.8 µM (inactive)	28.6 µM (inactive)	74.1 µM (inactive)
COC(=O)C1CCC(=O)N1CN(C(C)=O)c1ccccc1Cl (stereo not given)	> 100 µM (inactive)	> 100 µM (inactive)	> 100 µM (inactive)	> 100 µM (inactive)	> 100 µM (inactive)	> 100 µM (inactive)	> 100 µM (inactive)	–	> 100 µM (inactive)	> 100 µM (inactive)	> 100 µM (inactive)	> 100 µM (inactive)	> 100 µM (inactive)	> 100 µM (inactive)	> 100 µM (inactive)	> 100 µM (inactive)	> 100 µM (inactive)	> 100 µM (inactive)	> 100 µM (inactive)	> 100 µM (inactive)
C=C1C[C@@H](O)[C@@H](Br)C(C)(C)[C@@]12C=CC(O)(CBr)CC2 (stereo not given in full)	> 100 µM (inactive)	76.7 µM (inactive)	> 100 µM (inactive)	43.3 µM (inactive)	66.5 µM (inactive)	> 100 µM (inactive)	> 100 µM (inactive)	28.1 µM (inactive)	–	45.6 µM (inactive)	62.4 µM (inactive)	88.9 µM (inactive)	36.1 µM (inactive)	> 100 µM (inactive)	> 100 µM (inactive)	94 µM (inactive)	0.0191 µM (active)	> 100 µM (inactive)	13.6 µM (inactive)	1.6 µM (inactive)
O=c1/c(=C/c2ccc(-c3ccc(Cl)cc3Cl)o2)sc2n1[C@@H](c1ccc(Cl)cc1)C=C(c1cc(F)c(Cl)cc1Cl)N=2	53.2 µM (inactive)	46.5 µM (inactive)	37.9 µM (inactive)	31.2 µM (inactive)	54.3 µM (inactive)	10.6 µM (inactive)	76.4 µM (inactive)	–	78.5 µM (inactive)	29.6 µM (inactive)	84.3 µM (inactive)	35.6 µM (inactive)	57.9 µM (inactive)	–	34.6 µM (inactive)	36.6 µM (inactive)	50.8 µM (inactive)	> 100 µM (inactive)	26.1 µM (inactive)	87.5 µM (inactive)
CCOCCOC(=O)C1CCC(=O)N1CN(C(C)=O)c1cc(OC)ccc1OC (stereo not given)	> 100 µM (inactive)	> 100 µM (inactive)	> 100 µM (inactive)	> 100 µM (inactive)	> 100 µM (inactive)	> 100 µM (inactive)	> 100 µM (inactive)	–	> 100 µM (inactive)	> 100 µM (inactive)	> 100 µM (inactive)	> 100 µM (inactive)	> 100 µM (inactive)	> 100 µM (inactive)	> 100 µM (inactive)	> 100 µM (inactive)	> 100 µM (inactive)	> 100 µM (inactive)	> 100 µM (inactive)	> 100 µM (inactive)
CN1C(=O)c2ccccc2NC(=O)C12O[C@@H]2c1ccccc1 (stereo not given in full)	> 100 µM (inactive)	> 100 µM (inactive)	> 100 µM (inactive)	–	> 100 µM (inactive)	> 100 µM (inactive)	> 100 µM (inactive)	> 100 µM (inactive)	> 100 µM (inactive)	> 100 µM (inactive)	> 100 µM (inactive)	> 10 µM (inactive)	> 100 µM (inactive)	> 100 µM (inactive)	> 100 µM (inactive)	> 100 µM (inactive)	> 100 µM (inactive)	75.2 µM (inactive)	> 100 µM (inactive)	> 100 µM (inactive)
O=C1C(/C=C/c2ccc(Cl)cc2)=NNC2N1N=C1NC(=O)C3(NN12)c1ccccc1-c1ccccc13 (stereo not given)	> 100 µM (inactive)	> 100 µM (inactive)	> 100 µM (inactive)	> 100 µM (inactive)	60.8 µM (inactive)	> 100 µM (inactive)	> 100 µM (inactive)	65.6 µM (inactive)	> 100 µM (inactive)	65.6 µM (inactive)	> 100 µM (inactive)	> 100 µM (inactive)	> 100 µM (inactive)	> 100 µM (inactive)	> 100 µM (inactive)	> 100 µM (inactive)	> 100 µM (inactive)	> 100 µM (inactive)	41.9 µM (inactive)	–
CC(C)C(=O)NCC[C@@H](CNC(=O)OC(C)(C)C)NC(=O)OC(C)(C)C	> 100 µM (inactive)	> 100 µM (inactive)	> 100 µM (inactive)	> 100 µM (inactive)	> 100 µM (inactive)	> 100 µM (inactive)	> 100 µM (inactive)	> 100 µM (inactive)	> 100 µM (inactive)	> 100 µM (inactive)	> 100 µM (inactive)	> 100 µM (inactive)	–	> 100 µM (inactive)	> 100 µM (inactive)	> 100 µM (inactive)	> 100 µM (inactive)	> 100 µM (inactive)	> 100 µM (inactive)	> 100 µM (inactive)
CC(C)CC(NC=O)C(=O)NC(Cc1ccccc1)NC(=O)CNC(=O)C(C)NC(=O)OC(C)(C)C (stereo not given)	> 100 µM (inactive)	> 100 µM (inactive)	> 100 µM (inactive)	> 100 µM (inactive)	> 100 µM (inactive)	> 100 µM (inactive)	> 100 µM (inactive)	–	> 100 µM (inactive)	> 100 µM (inactive)	> 100 µM (inactive)	> 100 µM (inactive)	> 100 µM (inactive)	> 100 µM (inactive)	–	> 100 µM (inactive)	> 100 µM (inactive)	> 100 µM (inactive)	> 100 µM (inactive)	> 100 µM (inactive)
O=C(CNc1ccccn1)Nn1cnc2ccc(S(=O)(=O)Nc3ccccn3)cc2c1=O	> 100 µM (inactive)	–	> 100 µM (inactive)	–	> 100 µM (inactive)	> 100 µM (inactive)	> 100 µM (inactive)	> 100 µM (inactive)	> 100 µM (inactive)	> 100 µM (inactive)	> 100 µM (inactive)	> 100 µM (inactive)	> 100 µM (inactive)	> 100 µM (inactive)	> 100 µM (inactive)	> 100 µM (inactive)	> 100 µM (inactive)	> 100 µM (inactive)	> 100 µM (inactive)	> 100 µM (inactive)
CC1=CC(=O)/C(=C/n2c(=S)[nH]c3ccc([N+](=O)[O-])cc32)C(=O)O1	> 100 µM (inactive)	> 100 µM (inactive)	> 100 µM (inactive)	> 100 µM (inactive)	> 100 µM (inactive)	> 100 µM (inactive)	> 100 µM (inactive)	> 100 µM (inactive)	> 100 µM (inactive)	> 100 µM (inactive)	> 100 µM (inactive)	> 100 µM (inactive)	> 100 µM (inactive)	> 100 µM (inactive)	> 100 µM (inactive)	> 100 µM (inactive)	> 100 µM (inactive)	–	> 100 µM (inactive)	> 100 µM (inactive)
